{"source": "patent US6756368B1", "about": "“Use of cobalt chelates for treating or preventing virus infection” (The Trustees of Columbia University in the City of New York, priority 1999, dated 2004)", "key": {"[1]": {"test_system": "HSV-1", "assay": "Accumulation of virus-specified proteins (Western blot)", "type": "cell-based, HSV-1 Glasgow strain 17", "description": "Protein preparation and western blot analysis were performed as previously described (54). Briefly, at the indicated times the infected cells were collected by centrifugation, resuspended in 1.5×SDS-PAGE sample buffer, and boiled for 10 min. The proteins were separated by SDS-PAGE and electrophorectically transferred to nitrocellulose membranes. Immunodetection of proteins was performed using the following antibodies: ICP0, rabbit polyclonal antibody CLU7 (54); ICP27, rabbit polyclonal antibody CLU38 (54); glycoprotein B (gB), rabbit polyclonal antibody R69 (provided by T. Kristie, National Institute of Allergy and Infectious Diseases) [Zhang, et al. 1991]; and _TIF, rabbit polyclonal antibody anti-VP16 (Clontech Laboratories Inc., Palo Alto, Calif.). The secondary antibodies used were goat anti-rabbit and goat anti-mouse IgG conjugated to horseradish peroxidase (Kirkegaard and Perry Laboratories, Inc., Gaithersburg, Md.). Immunoblots were developed as previously described (55).\nAccumulation of Virus-Specified Proteins in the Presence of Drug. Failure to efficiently replicate virus DNA could result from a specific block of replication per se or because virus-specified gene expression is affected by drug. To address this issue cells were infected with HSV-1 at an moi of 5, 50 μg/ml of drug was either added at time 0, 1 hr pi or not added and at intervals post infection the infected cells were harvested and proteins were extracted and assayed for the presence of virus specified polypeptides by Western blot. […] The residual reactivity with ∝-TIF in the sample treated at T=0 results from protein associated with the infecting virions. There is no increase in the accumulation of this protein during the course of infection. It is not possible to exclude the possibility that virus never enters these cells and that the ∝-TIF that is detected results from cell associated virus."}, "[2]": {"test_system": "HSV-1", "assay": "Virus entry assay, αTIF immunofluorescence", "type": "cell-based, HSV-1 Glasgow strain 17", "description": "(i) αTIF immunofluorescence. […] Pre-warmed media (37° C.) was added to each plate, incubated at 37° C. for the indicated times and washed twice with ice cold PBS on ice. The infected cells were fixed in 3.7% formaldehyde in PBS for 30 min at room temperature and washed with PBS. The fixed monolayers were permeabilized in −20° C. acetone at −20° C. for 10 min. Cells were washed with water and then PBS. Fixed cells were incubated in 10% normal goat serum (NGS; Roche, Indianapolis, Ind.) in 0.1% Tween 20 in PBS (PBST) for 20 min at RT and washed twice with PBST. Cover slips were then incubated in PBST containing 1% NGS and 1:200 polyclonal antibody anti-VP16 antibody (Clontech Laboratories, Inc.) for 30 min and washed 6 times with PBST. The infected cell monolayers were then incubated in PBST containing 1% NGS and 1:200 goat anti-rabbit IgG antibody conjugated to fluorescein isothiocyanate (FITC; Kirkegaard and Perry Laboratories, Inc.) for 30 min and washed 6 times with PBST. The cover slips were then mounted on slides in gel/mount solution (Biomeda, Fisher, Springfield, N.J.) and viewed with a 100× lens of a Zeiss LSM 4100 confocal laser scanning system attached to a Zeiss Axiovert 100TV inverted microscope. Each image is the average of 1 μm Z series.\nThere are several approaches to assessing the ability of virus to adsorb and enter a cell. […]"}}, "note": "Entries after “also recorded” stand apart in the source; their conditions may differ.", "data": [{"smiles": "CC(/C=C(/C)[O-])=NCCN=C(C)/C=C(/C)[O-].Cc1ncc[nH]1.Cc1ncc[nH]1.[Br-].[Co+3]", "note": "[CTC-96]", "values": [{"measurement": "accumulation of virus-specified proteins", "setting": "[1]; 50 μg/ml added 1 hr pi / after initiation of infection", "value": "only a small effect; also recorded: little or no effect"}, {"measurement": "accumulation of gB (early) and α-TIF (late)", "setting": "[1]; 50 μg/ml added at time 0", "value": "no measurable accumulation"}, {"measurement": "synthesis of ICP0 and ICP27 (immediate early)", "setting": "[1]; 50 μg/ml added at time 0", "value": "little if any synthesis"}, {"measurement": "accumulation of virus proteins of all kinetic classes", "setting": "[1]; 50 μg/ml present from the initiation of infection", "value": "prevented the accumulation of gene products from all kinetic classes; also recorded: prevents synthesis of all kinetic classes of virus proteins"}, {"measurement": "virus entry / nuclear accumulation of αTIF", "setting": "[2]; 50 μg/ml, MOI 100, 30-60 min after shift to 37° C.", "value": "no evidence for virus entering the cell; also recorded: unable to accumulate in the nucleus; also recorded: prevented nuclear accumulation"}, {"measurement": "virus bound to cells", "setting": "[2]; 5 min after shift up to 37° C.", "value": "less virus bound"}]}]}
